Reference: patent publication US20210393585A1, “METHOD FOR PREVENTING AND/OR TREATING A STRESS-INDUCED DISEASE” (TZU CHI UNIVERSITY, priority 2020, published 2021)

Tests used:
Assay type in all cases: in vivo
[1] = system: B57BL/6J mice; assay: Restraint stress-mediated immunosuppression in anti-platelet (CD41) Ig induced immune thrombocytopenia (ITP) model, platelet counts; settings: for rescue of restraint stress-mediated immunosuppression (ITP model): restraint (psychological) stress, FIG. 7
Procedure: Experiment outlines (A). The effects of tanshinone IIA treatments on the restraint stress-mediated amelioration of immune thrombocytopenia (ITP) (B) were analyzed. The data are representative of three independent experiments with two mice per group (n=6). ** P<0.01 compared with the respective vehicle groups in the tanshinone IIA vs. vehicle treatments (B).
The effects of tanshinone I (A), crytotanshinone (B), tanshinone IIA sodium sulfate (C) treatments on the restraint stress-mediated amelioration of immune thrombocytopenia (ITP) were analyzed. The data are representative of three independent experiments with two mice per group (n=6). * P<0.05, ** P<0.01 compared with the respective vehicle without stress (0 h) groups, #P<0.05, ##P<0.01 compared with the respective tanshinone IIA, without stress groups in the ITP experiments.
(§1) Autoimmune thrombocytopenia (ITP) mouse model, through intravascular injections of anti-platelet (CD41) Ig following previously reported methods (Huang et al., Blood 2010; 116:5002-9), was employed to investigate the immunosuppressive property of cold exposure and restraint stress, and immune enhancing properties of tanshinone IIA and its derivatives. The B57BL/6J mice were intravenously injected with 0.1 mg/kg (body weight) of an antiplatelet monoclonal antibody (rat antimouse integrin αIIb/CD41 Ig, clone MWReg30, BD PharMingen) to induce ITP. Mice with or without injections of anti-CD41 Ig were subjected to cold exposure and restraint stress. To address the immune enhancing properties of tanshinone IIA, these mice were further treated with or without tanshinone I, tanshinone IIA, tanshinone IIA sodium sulfate, crytotanshinone (10-2 to 10 mg/kg) treatments. To determine the mouse platelet counts, whole blood samples (100-120 μL) of the mice were collected from the retro-orbital venous plexus and mixed with an anticoagulant, a citrate dextrose solution (38 mM citric acid, 75 mM sodium citrate, and 100 mM dextrose), in Eppendorf tubes. Subsequently, platelet counts were measured using a hematology analyzer (KX-21N, Sysmex) at various time intervals as previously described (Chan et al., Oncotarget 2018; 9:12781-95; Huang et al., Blood 2010; 116:5002-9).

[2] = system: B57BL/6J mice; assay: Cold stress-mediated immunosuppression in anti-platelet (CD41) Ig induced immune thrombocytopenia (ITP) model, platelet counts; settings: for rescue of cold stress-mediated immunosuppression (ITP model): FIG. 8
Procedure: (§2) Experiment outlines (A and C). The effects of tanshinone IIA treatments on the cold-mediated amelioration of immune thrombocytopenia (ITP) (B) and cold-suppressed bacterial clearance (D) were analyzed. The data are representative of three independent experiments with two mice per group (n=6). ** P<0.01 compared with the respective vehicle (25° C.) groups, ##P<0.01 compared with the respective tanshinone IIA 25° C. groups (B and D).
The effects of tanshinone I (A), crytotanshinone (B), tanshinone IIA sodium sulfate (C) treatments on the cold-mediated amelioration of immune thrombocytopenia (ITP) were analyzed. The data are representative of three independent experiments with two mice per group (n=6). ** P<0.01 compared with the respective vehicle (25° C.) groups, ##P<0.01 compared with the respective tanshinone IIA 25° C. groups.
as §1

[3] = system: cortisol; assay: Cold stress-induced plasma cortisol (ELISA); settings: mice, FIG. 5
Procedure: The time course on the effects of tanshinone IIA treatments on the cold-mediated amelioration of immune thrombocytopenia (ITP) (A) and cold-induced elevation of cortisol (B) was analyzed. The data are representative of three independent experiments with two mice per group (n=6). ** P<0.01 compared with the respective vehicle (25° C.)/vehicle (0 h) groups.
Blood samples were collected from experimental mice under cold stress or restraint stress for 7 h. The plasma levels of cortisol were measured using an ELISA kit (Cayman Chemical, Ann Arbor, Mich., USA) as previously described (Chan et al., Oncotarget 2018; 9:12781-95).

[4] = system: E. coli, BL21; assay: Cold-suppressed bacterial clearance (surviving bacteria in spleen); settings: mice challenged i.v. with E. coli, compared to vehicle control (without immunosuppression) groups, FIG. 4D
Procedure: as §2
The bacterium E. coli was cultured using standard methods. To analyze the immunosuppressive effects of cold exposure and restraint stress on bacterial clearance, following our previously developed methods (Chan et al., Oncotarget 2018; 9:12781-95), the experimental mice were challenged by intravenously administering bacteria (E. coli, BL21, 6×10^9 CFU/kg; no mortality within 24 h at 4° C.); a 40-h circulating equilibrium at a 25° C. environment was required before cold exposure (control groups: 25° C. exposure) and restraint stress. One day after treatment with cold exposure or restraint stress, the spleens of the euthanized mice were collected and weighed. After homogenization (homogenizer, BioSpec Products, Racine, Wis., USA) in PBS, surviving bacteria (colony forming units [CFUs]) in the spleen tissues were quantified using the standard plating method. […]

[5] = system: B57BL/6J mice; assay: Cold stress-induced gastrointestinal leakage (circulating Evans blue); settings: stressed, 9 h groups with vs without TSNIIA, #P<0.05, FIG. 3
Procedure: Experiment outlines (A). The effects of tanshinone IIA treatments on the amelioration of cold exposure-induced gastrointestinal leakage (B) were analyzed. The data are representative of three independent experiments with two mice per group (n=6). ** P<0.01 compared with the respective 5 h, no stress groups, #P<0.05 compared with the respective stress groups of each time course (B). EB: Evans blue.
(§3) The results of the exemplary rescue of restraint stress-induced gastrointestinal leakage by tanshinone IIA (TSNIIA) treatments are shown in FIG. 1. Evans blue, a gastrointestinal non-absorbable dye, is able to bind circulating albumin to form dye-protein complexes, which cannot normally penetrate the endothelial cell layers of the vascular system, unless the tissue has been damaged (Yao et al., Contrast Media Mol Imaging 2018; 2018:7628037). Accordingly, circulating Evens blue levels are approximately and proportionally correlated to the levels of gastrointestinal injury.

[6] = system: B57BL/6J mice; assay: Restraint stress-induced gastrointestinal leakage (circulating Evans blue); settings: stressed, 9 h groups with vs without TSNIIA, #P<0.05, FIG. 1
Procedure: Experiment outlines (A). The effects of tanshinone IIA treatments on the amelioration of restraint stress induced gastrointestinal leakage (B) were analyzed. The data are representative of three independent experiments with two mice per group (n=6). * P<0.05 compared with the respective 5 h, no stress groups, #P<0.05 compared with the respective stress groups of each time course (B). EB: Evans blue.
as §3

| Molecule | rescue of restraint stress-mediated immunosuppression (ITP model) [1] | rescue of cold stress-mediated immunosuppression (ITP model) [2] | cold stress-induced levels of circulating cortisol [3] | platelet counts after restraint stress in anti-platelet (CD41) Ig induced thrombocytopenia ([1]; restraint stress, compared to vehicle control (without immunosuppression) groups, FIG. 2) | bacterial clearance rate after cold stress [4] | platelet counts after cold stress in anti-platelet (CD41) Ig induced thrombocytopenia ([2]; compared to vehicle control (without immunosuppression) groups, FIG. 4B) | cold stress-induced gastrointestinal injury (circulating Evans blue levels) [5] | restraint stress-induced gastrointestinal injury (circulating Evans blue levels) [6] |
| --- | --- | --- | --- | --- | --- | --- | --- | --- |
| tanshinone IIA sodium sulfate | exert similar immune enhancing properties under psychological stress | exert similar immune enhancing properties under cold stress |  |  |  |  |  |  |
| C[C@H]1COC2=C1C(=O)C(=O)c1c2ccc2c1CCCC2(C)C [crytotanshinone] | exert similar immune enhancing properties under psychological stress | exert similar immune enhancing properties under cold stress |  |  |  |  |  |  |
| Cc1coc2c1C(=O)C(=O)c1c-2ccc2c(C)cccc12 [tanshinone I] | exert similar immune enhancing properties under psychological stress | exert similar immune enhancing properties under cold stress |  |  |  |  |  |  |
| Cc1coc2c1C(=O)C(=O)c1c-2ccc2c1CCCC2(C)C [tanshinone IIA] | exert similar immune enhancing properties under psychological stress | exert similar immune enhancing properties under cold stress | counteract the cold stress-induced levels of circulating anti-inflammatory steroid hormone cortisol | remain low and do not show statistical significance as compared to the vehicle control | the bacterial clearance rate is high | remain low and do not show statistical significance as compared to the vehicle control | able to ameliorate cold stress-induced gastrointestinal injury | able to ameliorate stress-induced gastrointestinal injury |
